According to patent publication US8845879B2 (priority 2010, dated 2014):
Where two headings read alike, the source gives them in different places.

What was measured:
[1] = tested on: mitochondria isolated from Saccharomyces cerevisiae; type: biochemical
[2] = tested on: immobilized mouse liver mitochondria; type: biochemical
[3] = before vs after overnight soak at 4° C. in pesticide solution, average ± standard deviation

O=C(O)COc1ccc(Cl)cc1Cl [2,4-D, 2,4-Dichlorophenoxyacetic acid]
change in peak area (ΔAh) [1]: −8.237E−05 ± 1.713E−05 C
change in peak height (Δip) [1]: −1.617E−06 ± 5.286E−07 A

CCNc1nc(Cl)nc(NC(C)C)n1 [Atrazine]
change in peak area (ΔAh) [1]: −6.809E−05 ± 1.708E−05 C
change in peak height (Δip) [1]: −8.290E−07 ± 2.197E−07 A

COc1ccc2nc([S@@+]([O-])Cc3ncc(C)c(OC)c3C)[nH]c2c1 [Esomeprazole]
attenuated current [2]: 16.8±6.4%
attenuation (decrease) in current [2]: 1.7±10.3%
attenuation in metabolic energy conversion [2]: 19.9±7.6%
attenuation in metabolic energy production [2]: 58.8±11.1%

C[n+]1ccc(-c2cc[n+](C)cc2)cc1 [Paraquat]
change in peak area (ΔAh) [1]: −3.690E−05 ± 1.109E−05 C
change in peak height (Δip) [1]: −8.582E−07 ± 1.870E−07 A

CCOP(=S)(OCC)Oc1ccc([N+](=O)[O-])cc1 [Parathion]
change in peak area (ΔAh) [1, 3]: −2.721E−05 ± 9.349E−06 C
change in peak height (Δip) [1, 3]: −4.491E−07 ± 2.512E−07 A

CC1(C)C(C=C(Cl)Cl)C1C(=O)OCc1cccc(Oc2ccccc2)c1 (stereo not drawn) [Permethrin]
change in peak area (ΔAh) [1]: −6.597E−05 ± 1.238E−05 C
change in peak height (Δip) [1]: −1.015E−06 ± 2.065E−07 A

O=C(O)c1ccccc1O [Salicylic acid]
change in current after treatment (in words) [2]: not statistically significant
higher metabolic energy flux than untreated mitochondria [2]: 18.6±1.5%

CC1=NS(=O)(=O)c2cc(Cl)ccc2N1 [diazoxide]
inhibition of mitochondrial function (in words) [2]: partial inhibition

CC[C@H]1/C=C/C=C/C[C@@H](C)[C@H](O)[C@@](C)(O)C(=O)[C@@H](C)[C@H](O)[C@@H](C)C(=O)[C@@H](C)[C@H](O)[C@@H](C)/C=C/C(=O)O[C@@H]2[C@H](C)[C@H](CC1)O[C@]1(CC[C@H](C)[C@H](C[C@@H](C)O)O1)[C@H]2C [oligomycin]
attenuation (decrease) in current [2]: 36.5±3.7%
attenuation in metabolic energy conversion [2]: 60.9±1.0%

C=C(C)[C@H]1Cc2c(ccc3c2O[C@@H]2COc4cc(OC)c(OC)cc4[C@@H]2C3=O)O1 [rotenone]
inhibition of mitochondrial function (in words) [2]: strong inhibitory response

antimycin
inhibition of mitochondrial function (in words) [2]: strong inhibitory response
